Test results taken from article PMC10460844, “Real‐Time Monitoring of Multitarget Antimicrobial Mechanisms of Peptoids Using Label‐Free Imaging with Optical Diffraction Tomography” (Advanced Science, 2023).
Converted amounts (≈) assume the structure as drawn. Structures can show the parent of a compound that is named as a salt. Where two headings read alike, the source gives them in different places. Square brackets hold non-standard residues; d marks the D form. Peptide text beside a SMILES is read from it. Gly(N(CH2)2(3-indolyl)) = O=C(O)CNCCc1c[nH]c2ccccc12; Nspe = C[C@H](NCC(=O)O)c1ccccc1; Nlys = NCCCCNCC(=O)O

Tests used:
[1] = tested on: E. coli ATCC 25922; format: cell-based, Escherichia coli
Protocol: (§1) The antibacterial activity of the peptoids was evaluated against gram‐positive (Staphylococcus aureus, ATCC 25 923) and gram‐negative (Escherichia coli, ATCC 25 922) bacteria. […] The MIC of each peptoid was determined using a broth dilution assay. For each assay, the primary culture of either S. aureus or E. coli was grown overnight in cation‐adjusted Mueller Hinton broth 2 (MHB2) media at 37 °C with shaking. A secondary culture was prepared the next day, grown for 3–4 h, and then diluted in MHB2 media with a final concentration of 0.001% acetic acid and 0.02% bovine serum albumin to obtain a calculated optical density (OD) of 0.001. This corresponded to ≈2–5 × 10^5 colony‐forming units (CFU mL^−1) of bacteria. Using 96‐well polypropylene plates (Eppendorf, Hamburg, Germany), 100 µL of 2–5 × 10^5 CFU mL^−1 bacteria were added in triplicate for each peptoid. Each peptoid was assayed at six different concentrations in two‐fold serial dilutions. The maximum peptoid concentration was 25 µM. […] The MIC value determination was performed in triplicate. The MIC was defined as the lowest peptoid concentration that prevented turbidity during visual inspection.

[2] = tested on: S. aureus ATCC 25923; format: cell-based, Staphylococcus aureus
Protocol: as §1

[3] = tested on: rat erythrocytes; assay: Hemolysis assay; format: cell-based
Outline: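 Washed Sprague-Dawley rat erythrocytes (10% suspension in PBS pH 7.4) mixed with peptoids (0–100 µM), 60 min at 37 °C; supernatant A540 expressed as % of 1% Triton X-100 lysis. HC10/HC50 are concentrations giving 10%/50% hemolysis; Hmax is hemolysis at 100 µM.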

[4] = Analytical reversed-phase HPLC elution (hydrophobicity); format: physicochemical; settings: analytical RP-HPLC, 1 mL/min, UV 220 nm; for HPLC elution: Table S1, SunFire C18, water/ACN + 0.1% TFA, 5 to 100% B linear over 30 min, approximate comparison of hydrophobicity
Outline: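 Analytical reversed-phase HPLC on a C18 column (4.6 × 250 mm, 5 μm) at 1 mL/min, water/acetonitrile each with 0.1% TFA. Held at 5% B for 2 min, then linear to 100% B over 30 min and held 5 min, with UV detection at 220 nm; retention time (tR) serves as hydrophobicity measure.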

[5] = Table S2, broth dilution, MHB2, 37 °C 24 h, max 25 µM, mean of triplicate

Row | Compound | MIC E. coli ATCC25922 ([1]; ATCC 25922) [µM] | MIC S. aureus ATCC25923 ([2]; ATCC 25923) [µM] | Hmax (100 µM) [3] [%] | HC10 ([3]; red cells of rat) [µM] | HC50 ([3]; red cells of rat) [µM] | HPLC elution (%ACN) ([4]; Table 1, SunFire C18 […] 250 mm, water/ACN + 0.1% TFA, 5% B 2 min then linear to 100% B over 30 min, used as measure of hydrophobicity) | MIC S. aureus ATCC25923 [2, 5] [µM] | H max (100 µM) [3] [%] | HC10 ([3]; pH 7.4) [µM] | HC50 ([3]; pH 7.4) [µM] | HPLC elution [4] [% MeCN] | MIC E. coli ATCC25922 [1, 5] [µM]
1 | C[C@@H](c1ccccc1)N(CC(N)=O)C(=O)CN(C(=O)CN(CCCCN)C(=O)CN(C(=O)CN(C(=O)CN(CCCCN)C(=O)CN(C(=O)CN(C(=O)CN(CCCCN)C(=O)CN(CCc1c[nH]c2ccccc12)C(=O)CN(C(=O)CNCCCCN)[C@@H](C)c1ccccc1)[C@@H](C)c1ccccc1)[C@@H](C)c1ccccc1)[C@@H](C)c1ccccc1)[C@@H](C)c1ccccc1)[C@@H](C)c1ccccc1 [10-AcOH] | 6.3 (≈ 11.7 µg/mL) | 1.6 (≈ 2.97 µg/mL) | 102.3±11.3 | 14.1 | 29.4 | – | – | – | – | – | – | –
2 | C[C@@H](c1ccccc1)N(CC(N)=O)C(=O)CN(C(=O)CN(CCCCN)C(=O)CN(C(=O)CN(C(=O)CN(CCCCN)C(=O)CN(C(=O)CN(C(=O)CN(CCCCN)C(=O)CN(CCc1c[nH]c2ccccc12)C(=O)CN(C(=O)CNCCCCN)[C@@H](C)c1ccccc1)[C@@H](C)c1ccccc1)[C@@H](C)c1ccccc1)[C@@H](C)c1ccccc1)[C@@H](C)c1ccccc1)[C@@H](C)c1ccccc1 [10-HCl] | 6.3 | 3.1 | 81.5±7.4 | 15.3 | 37.8 | – | – | – | – | – | – | –
3 | C[C@@H](c1ccccc1)N(CC(=O)N(CCCCN)CC(=O)N(CC(=O)N(CC(=O)N(CCCCN)CC(=O)N(CC(=O)N(CC(=O)N(CCCCN)CC(=O)N(CCc1c[nH]c2ccccc12)CC(=O)N(CCc1c[nH]c2ccccc12)CC(N)=O)[C@@H](C)c1ccccc1)[C@@H](C)c1ccccc1)[C@@H](C)c1ccccc1)[C@@H](C)c1ccccc1)C(=O)CN(C(=O)CNCCCCN)[C@@H](C)c1ccccc1 [11-AcOH] (H-[Nlys][Nspe][Nspe][Nlys][Nspe][Nspe][Nlys][Nspe][Nspe][Nlys][Gly(N(CH2)2(3-indolyl))][Gly(N(CH2)2(3-indolyl))]-NH2) | 3.1 (≈ 5.88 µg/mL) | 1.6 (≈ 3.04 µg/mL) | 110.4±0.2 | 8.7 | 29.7 | – | – | – | – | – | – | –
4 | C[C@@H](c1ccccc1)N(CC(=O)N(CCCCN)CC(=O)N(CC(=O)N(CC(=O)N(CCCCN)CC(=O)N(CC(=O)N(CC(=O)N(CCCCN)CC(=O)N(CCc1c[nH]c2ccccc12)CC(=O)N(CCc1c[nH]c2ccccc12)CC(N)=O)[C@@H](C)c1ccccc1)[C@@H](C)c1ccccc1)[C@@H](C)c1ccccc1)[C@@H](C)c1ccccc1)C(=O)CN(C(=O)CNCCCCN)[C@@H](C)c1ccccc1 [11-HCl] (H-[Nlys][Nspe][Nspe][Nlys][Nspe][Nspe][Nlys][Nspe][Nspe][Nlys][Gly(N(CH2)2(3-indolyl))][Gly(N(CH2)2(3-indolyl))]-NH2) | 3.1 | 3.1 | 113.9±1.7 | 10.1 | 21.5 | – | – | – | – | – | – | –
5 | C[C@@H](c1ccccc1)N(CC(N)=O)C(=O)CN(C(=O)CN(CCCCN)C(=O)CN(C(=O)CN(C(=O)CN(CCCCN)C(=O)CN(C(=O)CN(C(=O)CN(CCCCN)C(=O)CN(CCc1c[nH]c2ccccc12)C(=O)CN(CCc1c[nH]c2ccccc12)C(=O)CNCCCCN)[C@@H](C)c1ccccc1)[C@@H](C)c1ccccc1)[C@@H](C)c1ccccc1)[C@@H](C)c1ccccc1)[C@@H](C)c1ccccc1 [14-AcOH] | 3.1 (≈ 5.88 µg/mL) | 1.6 (≈ 3.04 µg/mL) | 100.7±17.2 | 14.9 | 51.8 | – | – | – | – | – | – | –
6 | C[C@@H](c1ccccc1)N(CC(N)=O)C(=O)CN(C(=O)CN(CCCCN)C(=O)CN(C(=O)CN(C(=O)CN(CCCCN)C(=O)CN(C(=O)CN(C(=O)CN(CCCCN)C(=O)CN(CCc1c[nH]c2ccccc12)C(=O)CN(CCc1c[nH]c2ccccc12)C(=O)CNCCCCN)[C@@H](C)c1ccccc1)[C@@H](C)c1ccccc1)[C@@H](C)c1ccccc1)[C@@H](C)c1ccccc1)[C@@H](C)c1ccccc1 [14-HCl] | 3.1 | 3.1 | 75.3±5.0 | 19.2 | 68.2 | – | – | – | – | – | – | –
7 | C[C@@H](c1ccccc1)N(CC(N)=O)C(=O)CN(C(=O)CN(CCCCN)C(=O)CN(C(=O)CN(CCc1c[nH]c2ccccc12)C(=O)CN(CCCCN)C(=O)CN(CCc1c[nH]c2ccccc12)C(=O)CN(C(=O)CN(CCCCN)C(=O)CN(C(=O)CN(C(=O)CNCCCCN)[C@@H](C)c1ccccc1)[C@@H](C)c1ccccc1)[C@@H](C)c1ccccc1)[C@@H](C)c1ccccc1)[C@@H](C)c1ccccc1 [15-AcOH] | 6.3 (≈ 12 µg/mL) | 3.1 (≈ 5.88 µg/mL) | 34.1±1.1 | 39.2 | > 100 | – | – | – | – | – | – | –
8 | CC[C@H](C)[C@H](N)C(=O)N[C@@H](CC(C)C)C(=O)N[C@@H](CCCNC(=N)N)C(=O)N[C@@H](Cc1c[nH]c2ccccc12)C(=O)N1CCC[C@H]1C(=O)N[C@@H](Cc1c[nH]c2ccccc12)C(=O)N[C@@H](Cc1c[nH]c2ccccc12)C(=O)N1CCC[C@H]1C(=O)N[C@@H](Cc1c[nH]c2ccccc12)C(=O)N[C@@H](CCCNC(=N)N)C(=O)N[C@@H](CCCNC(=N)N)C(=O)N[C@@H](CCCCN)C(N)=O [Omiganan, reference compound] (H-ILRWPWWPWRRK-NH2) | – | – | 0 | – | – | 45.7 | 12.5 (≈ 22.2 µg/mL) | 0 | > 100 | > 100 | – | –
9 | C[C@@H](c1ccccc1)N(CC(N)=O)C(=O)CN(C(=O)CN(CCCCN)C(=O)CN(C(=O)CN(C(=O)CN(CCCCN)C(=O)CN(CCc1c[nH]c2ccccc12)C(=O)CN(C(=O)CN(CCCCN)C(=O)CN(C(=O)CN(C(=O)CNCCCCN)[C@@H](C)c1ccccc1)[C@@H](C)c1ccccc1)[C@@H](C)c1ccccc1)[C@@H](C)c1ccccc1)[C@@H](C)c1ccccc1)[C@@H](C)c1ccccc1 [peptoid 9] | – | – | 106.4±0.6 | – | – | – | – | – | 10.6 | 31.9 | 54.6 | 3.1 (≈ 5.76 µg/mL)
10 | C[C@@H](c1ccccc1)N(CC(N)=O)C(=O)CN(C(=O)CN(CCCCN)C(=O)CN(C(=O)CN(CCc1c[nH]c2ccccc12)C(=O)CN(CCCCN)C(=O)CN(CCc1c[nH]c2ccccc12)C(=O)CN(C(=O)CN(CCCCN)C(=O)CN(C(=O)CN(C(=O)CNCCCCN)[C@@H](C)c1ccccc1)[C@@H](C)c1ccccc1)[C@@H](C)c1ccccc1)[C@@H](C)c1ccccc1)[C@@H](C)c1ccccc1 [peptoid 15] | 3.1 (≈ 5.88 µg/mL) | – | – | 20.5 | 89.2 | – | – | – | 28.1 | 60.9 | 53.7 | –
11 | C[C@@H](c1ccccc1)N(CC(=O)N(CCCCN)CC(=O)N(CC(=O)N(CC(=O)N(CCCCN)CC(=O)N(CC(=O)N(CC(=O)N(CCCCN)CC(=O)N(CCCCN)CC(N)=O)[C@@H](C)c1ccccc1)[C@@H](C)c1ccccc1)[C@@H](C)c1ccccc1)[C@@H](C)c1ccccc1)C(=O)CN(C(=O)CNCCCCN)[C@@H](C)c1ccccc1 [peptoid 49] (H-[Nlys][Nspe][Nspe][Nlys][Nspe][Nspe][Nlys][Nspe][Nspe][Nlys][Nlys]-NH2) | – | – | 0.3±0.3 | – | – | – | – | – | > 100 | > 100 | 46.6 | –
12 | C[C@@H](c1ccccc1)N(CC(=O)N(CCCCN)CC(=O)N(CC(=O)N(CC(=O)N(CCCCN)CC(=O)N(CC(=O)N(CC(=O)N(CCCCN)CC(=O)N(CC(=O)N(CC(=O)N(CCCCN)CC(=O)N(CCCCN)CC(N)=O)[C@@H](C)c1ccccc1)[C@@H](C)c1ccccc1)[C@@H](C)c1ccccc1)[C@@H](C)c1ccccc1)[C@@H](C)c1ccccc1)[C@@H](C)c1ccccc1)C(=O)CNCCc1c[nH]c2ccccc12 [peptoid 61] (H-[Gly(N(CH2)2(3-indolyl))][Nspe][Nlys][Nspe][Nspe][Nlys][Nspe][Nspe][Nlys][Nspe][Nspe][Nlys][Nlys]-NH2) | – | – | 79.9±0.7 | – | – | – | – | – | 19.3 | 65.4 | 51.2 | –
13 | C[C@@H](c1ccccc1)N(CC(N)=O)C(=O)CN(CCCCN)C(=O)CN(C(=O)CN(CCCCN)C(=O)CN(CCCCN)C(=O)CN(C(=O)CN(C(=O)CN(CCCCN)C(=O)CN(C(=O)CN(C(=O)CN(CCCCN)C(=O)CN(C(=O)CNCCc1c[nH]c2ccccc12)[C@@H](C)c1ccccc1)[C@@H](C)c1ccccc1)[C@@H](C)c1ccccc1)[C@@H](C)c1ccccc1)[C@@H](C)c1ccccc1)[C@@H](C)c1ccccc1 [peptoid 62] | – | – | 44.8±8.1 | – | – | – | – | – | 36.2 | > 100 | 50.8 | –
